Tested on: Plasmodium berghei
Assay: Luciferase/luciferin-expressing antifolate-resistant parasites were used to infect a culture of HepG2 cells that were pre-incubated with compounds. Infected hepatocytes emit light due to the luciferase reaction. Assay results are presented as the percent inhibition of light emission compared to control. […]
Assay type: functional
Settings: sporozoite; for IC90: read-out: LUCIFERASE INFECTION ASSAY - IC90
[1] = read-out: LUCIFERASE INFECTION ASSAY - IC50

| SMILES | IC90 | IC50 [1] | further results |
| --- | --- | --- | --- |
| c1ccc(-c2cn3c(-c4ccc5c(c4)OCO5)cnc3cn2)cc1 | > 10.5 µM |  | IC50 (HEPG2TOX_HILL_SLOPE 0.346, HEPG2TOX_R_SQUARED 0.507, PBLUC_HILL_SLOPE 2.83, PBLUC_R_SQUARED 0.466, read-out: LUCIFERASE INFECTION ASSAY - IC50): 9.02 µM |
| Cc1cccc(N2CCN(C(=O)/C=C/c3cnn(-c4ccccc4)c3)CC2)c1 | > 10 µM | > 10 µM |  |
| COc1ccc(OC)c(C(=O)c2oc3cc(NC(=O)C4CC4)ccc3c2C)c1 | 0.519 µM | 0.214 µM |  |
| COc1ccc(C(=O)/C=C/c2cccc(C#N)c2)cc1CN1CCCC1 | > 10 µM |  | IC50 (HEPG2TOX_HILL_SLOPE 11.5, HEPG2TOX_R_SQUARED 0.623, read-out: LUCIFERASE INFECTION ASSAY - IC50): > 10 µM |
| CCOC(=O)c1sc(NC(=O)Nc2ccc(Cl)c(Cl)c2)cc1C | 2.36 µM |  | IC50 (HEPG2TOX_HILL_SLOPE 22.1, HEPG2TOX_R_SQUARED 0.877, PBLUC_HILL_SLOPE 3.44, PBLUC_R_SQUARED 0.676, read-out: LUCIFERASE INFECTION ASSAY - IC50): 1.25 µM |
| Cc1cccc(/C=C(/C(=O)NCc2ccc(NC(=O)C(C)C)cc2)c2cccs2)c1 | 4.58 µM |  | IC50 (PBLUC_HILL_SLOPE 14.7, PBLUC_R_SQUARED 0.598, read-out: LUCIFERASE INFECTION ASSAY - IC50): 3.95 µM |
| CN1CCN(C(c2ccccn2)c2c(-c3ccccc3)n(O)c3ccccc23)CC1 (stereo unspecified) | > 10 µM |  | IC50 (FFLUC_HILL_SLOPE 1.05, FFLUC_R_SQUARED 0.622, read-out: LUCIFERASE INFECTION ASSAY - IC50): > 10 µM |
| CC(=O)Nc1cccc(-c2cn3c(-c4cccs4)cnc3cn2)c1 | > 9.87 µM |  | IC50 (HEPG2TOX_HILL_SLOPE 3.98, HEPG2TOX_R_SQUARED 0.532, PBLUC_HILL_SLOPE 3.16, PBLUC_R_SQUARED 0.221, read-out: LUCIFERASE INFECTION ASSAY - IC50): 5.11 µM |
| CN(/N=C/c1ccc(Cl)cc1)c1ncc(Cl)cc1C(F)(F)F | > 9.48 µM |  | IC50 (PBLUC_HILL_SLOPE 3.36, PBLUC_R_SQUARED 0.0281, read-out: LUCIFERASE INFECTION ASSAY - IC50): 7.13 µM |
| CN(C)C(CNC(=O)c1ccc(NC(=O)OC(C)(C)C)cc1)c1cccs1 (stereo unspecified) | > 10 µM | > 10 µM |  |
| COc1ccc(C(N)c2csc(NC(=O)Nc3ccccc3C(C)C)n2)cc1 (stereo unspecified) | 3.02 µM |  | IC50 (PBLUC_HILL_SLOPE 13.4, PBLUC_R_SQUARED 0.332, read-out: LUCIFERASE INFECTION ASSAY - IC50): 2.57 µM |
| CCOC(/C=C1\Sc2c(ccc3c2CCCC3)N1CC)=C1/SC(=S)N(CC)C1=O | > 10 µM | > 10 µM |  |
| Cc1cc(C(=O)N/N=C/c2ccc(Sc3ncccn3)c([N+](=O)[O-])c2)c(C)n1-c1ccccc1 | > 10 µM | > 10 µM |  |
| CC(=O)c1csc(NC(=O)c2cc(C(C)C)nc3c2c(C)nn3C(C)(C)C)n1 | > 10 µM | > 10 µM |  |
| Cn1ccnc1Sc1ncnc2ccsc12 | 9.45 µM |  | IC50 (PBLUC_HILL_SLOPE 4.08, PBLUC_R_SQUARED 0.748, read-out: LUCIFERASE INFECTION ASSAY - IC50): 5.51 µM |
| Nn1cc(C(F)(F)F)cc(Cl)c1=[N+]1CCNCC1 | > 7.29 µM | > 7.29 µM |  |
| CCc1ccc(OCC(O)Cn2c(=O)c3ccccc3n3nc(C)cc23)cc1 (stereo unspecified) | 9.43 µM |  | IC50 (HEPG2TOX_HILL_SLOPE 9.12, HEPG2TOX_R_SQUARED 0.677, PBLUC_HILL_SLOPE 3.87, PBLUC_R_SQUARED 0.197, read-out: LUCIFERASE INFECTION ASSAY - IC50): 5.34 µM |
| COCC(C)n1c(COc2ccccc2F)nnc1SC(C(=O)Nc1cc(C(F)(F)F)ccc1Cl)c1ccccc1 (stereo unspecified) | 9.85 µM |  | IC50 (FFLUC_HILL_SLOPE 3.29, FFLUC_R_SQUARED 0.0514, HEPG2TOX_HILL_SLOPE 2.28, HEPG2TOX_R_SQUARED 0.446, PBLUC_HILL_SLOPE 4.03, PBLUC_R_SQUARED 0.508, read-out: LUCIFERASE INFECTION ASSAY - IC50): 5.71 µM |
| Cc1ccccc1-c1cn2c(-c3ccc(CO)cc3)cnc2cn1 | 10.4 µM |  | IC50 (HEPG2TOX_HILL_SLOPE 0.675, HEPG2TOX_R_SQUARED 0.753, PBLUC_HILL_SLOPE 1.37, PBLUC_R_SQUARED 0.689, read-out: LUCIFERASE INFECTION ASSAY - IC50): 2.1 µM |

| SMILES | IC90 | IC50 [1] | further results |
| --- | --- | --- | --- |
| COc1cc(N(CC(=O)Nc2ccc(Cl)cc2)S(=O)(=O)c2ccc(Cl)cc2)c(Cl)cc1Cl | > 6.18 µM |  | IC50 (FFLUC_HILL_SLOPE 12.3, FFLUC_R_SQUARED 0.349, HEPG2TOX_HILL_SLOPE 3.41, HEPG2TOX_R_SQUARED 0.407, PBLUC_HILL_SLOPE 12, PBLUC_R_SQUARED 0.0202, read-out: LUCIFERASE INFECTION ASSAY - IC50): 5.6 µM |
| O=C1OC(c2ccccc2)Cc2cc(C(=O)N3CCC(C(=O)Nc4ccccc4)CC3)ccc21 (stereo unspecified) | > 10 µM |  | IC50 (HEPG2TOX_HILL_SLOPE 2.71, HEPG2TOX_R_SQUARED 0.817, PBLUC_HILL_SLOPE 3.44, PBLUC_R_SQUARED 0.218, read-out: LUCIFERASE INFECTION ASSAY - IC50): 6.51 µM |
| COCCc1ccc(-c2csc(NC(=O)Cc3c[nH]c4ccccc34)n2)cc1 | > 10 µM |  | IC50 (HEPG2TOX_HILL_SLOPE 5.8, HEPG2TOX_R_SQUARED 0.844, read-out: LUCIFERASE INFECTION ASSAY - IC50): > 10 µM |
| Cc1ccc(-n2c(SCC(=O)c3ccc4c(c3)OCO4)nnc2N2CCCC2)cc1 | > 10 µM | > 10 µM |  |
| COc1cccc(-c2nc(-c3ccc(O)cc3O)cs2)c1OC | > 10 µM |  | IC50 (HEPG2TOX_HILL_SLOPE 1.65, HEPG2TOX_R_SQUARED 0.767, read-out: LUCIFERASE INFECTION ASSAY - IC50): > 10 µM |
| Fc1cccc(NC(=S)NC2CCCCCCCCCCC2)c1 | 4.49 µM |  | IC50 (HEPG2TOX_HILL_SLOPE 19.2, HEPG2TOX_R_SQUARED 0.924, PBLUC_HILL_SLOPE 9.11, PBLUC_R_SQUARED 0.436, read-out: LUCIFERASE INFECTION ASSAY - IC50): 3.53 µM |
| Cc1cccc(Cn2nc(C(C)(C)C)cc2-c2nnc(SCC(=O)c3ccc(Cl)cc3)o2)c1 | > 6.86 µM |  | IC50 (FFLUC_HILL_SLOPE 7.72, FFLUC_R_SQUARED 0.435, PBLUC_HILL_SLOPE 3.63, PBLUC_R_SQUARED 0.42, read-out: LUCIFERASE INFECTION ASSAY - IC50): 6.23 µM |
| Cc1ccc(C(C=CC(C#N)C#N)=Nc2ccc(Cl)cc2)cc1 | > 10.3 µM | > 10.3 µM |  |
| N#CCSC1=CC(=O)CC(c2ccccc2)S1 (stereo unspecified) | > 12.6 µM | > 12.6 µM |  |
| Clc1ccc(C2=NN=C/C2=N\Nc2ccccc2)cc1 | > 11.7 µM |  | IC50 (FFLUC_HILL_SLOPE 24, FFLUC_R_SQUARED 0.142, HEPG2TOX_HILL_SLOPE 12.3, HEPG2TOX_R_SQUARED 0.867, PBLUC_HILL_SLOPE 2.49, PBLUC_R_SQUARED 0.792, read-out: LUCIFERASE INFECTION ASSAY - IC50): 5.52 µM |
| COc1ccc(N2C(=O)C(=O)N(Cc3c(C)cc(C(C)(C)C)cc3C)C2=O)cc1 | 7.85 µM |  | IC50 (HEPG2TOX_HILL_SLOPE 7.7, HEPG2TOX_R_SQUARED 0.735, PBLUC_HILL_SLOPE 4.71, PBLUC_R_SQUARED 0.498, read-out: LUCIFERASE INFECTION ASSAY - IC50): 4.92 µM |
| COc1ccc(C(=O)C2CCN(C(=O)c3cnc(C)cn3)CC2)cc1 | > 10 µM | > 10 µM |  |
| O=C(NC1CCCC1)c1ccc(-c2cn3c(-c4ccc(CO)cc4)cnc3cn2)cc1 | 7.79 µM |  | IC50 (PBLUC_HILL_SLOPE 20, PBLUC_R_SQUARED 0.468, read-out: LUCIFERASE INFECTION ASSAY - IC50): 6.98 µM |
| COc1ccccc1C(=O)NCc1cn(Cc2ccccc2)nc1-c1ccccc1 | > 10 µM |  | IC50 (PBLUC_HILL_SLOPE 11.8, PBLUC_R_SQUARED 0.553, read-out: LUCIFERASE INFECTION ASSAY - IC50): 9.21 µM |
| COCCNc1nc2cnc(-c3ccc4ccccc4c3)cc2n1C | > 10 µM |  | IC50 (FFLUC_HILL_SLOPE 5.54, FFLUC_R_SQUARED 0.844, PBLUC_HILL_SLOPE 0.43, PBLUC_R_SQUARED 0.895, read-out: LUCIFERASE INFECTION ASSAY - IC50): 0.13 µM |
| COc1ccc(Cl)cc1NS(=O)(=O)c1cccc(C(=O)OC(C)C(=O)c2cc(C)n(-c3ccccc3)c2C)c1 (stereo unspecified) | > 10 µM | > 10 µM |  |
| COc1ccc(-c2csc(NC(=O)c3cc4cc5ccc(OC)cc5nc4s3)n2)cc1 | > 10 µM | > 10 µM |  |
| Cc1c(-c2nc3ncc(Br)cc3[nH]2)cc(C#N)n1C | 9.96 µM |  | IC50 (FFLUC_HILL_SLOPE 1.06, FFLUC_R_SQUARED 0.775, HEPG2TOX_HILL_SLOPE 12.7, HEPG2TOX_R_SQUARED 0.745, PBLUC_HILL_SLOPE 2.08, PBLUC_R_SQUARED 0.626, read-out: LUCIFERASE INFECTION ASSAY - IC50): 3.46 µM |
| Cn1ccnc1/C(=N\NC(=O)c1sc2ccccc2c1Cl)c1cccc([N+](=O)[O-])c1 | > 10 µM | > 10 µM |  |

Source: ChEMBL document CHEMBL4483862, “Open-source discovery of chemical leads for next-generation chemoprotective antimalarials” (2018)
